Reference: PMC9367672, “In vitro differences in toddalolactone metabolism in various species and its effect on cytochrome P450 expression” (Pharmaceutical Biology, 2022)

Tests used:
[1] = tested on: MLMs; experiment: Enzyme kinetics of toddalolactone metabolism in monkey liver microsomes (oxidative metabolism and glucuronidation); type: in vitro ADME; settings: MLMs; for V max: toddalolactone 1–200 μM
Procedure: (§1) The CYP reaction system (200 μL) consisted of 0.1 M potassium phosphate buffer (pH 7.4), an NADPH-generating system (1 mM NADPH, 10 mM G-6-P, 1 unit/mL G-6-PD, 4 mM MgCl2), and liver microsomes or recombinant human microsomes (supersomes). Each of the in vitro enzymatic assays using liver microsomes was linear with respect to incubation time and amount of protein. After a pre-incubation at 37 °C for 3 min, the reactions were initiated by adding NADP^+. After incubating for 60 min, the reactions were quenched by adding 200 μL of ice-cold acetonitrile. Samples were centrifuged at 18,000 g for 15 min at 4 °C and 10 μL of supernatant was analyzed using an HPLC system. NADPH or CYP enzyme sources were not used in the control group to ensure that the metabolic reactions were CYP- and NADPH-dependent. All incubation assays were completed in triplicate. The data are presented as mean ± standard deviation (SD).
(§2) In the UGT reaction system, liver microsomes were incubated in 200 μL of the reaction system containing 4 mM UDPGA, 5 mM MgCl2, 20 µg/mL alamethicin, and 50 mM Tris-HCl buffer (pH 7.4). After pre-incubation at 37 °C for 3 min, UDPGA was added to the mixture to initiate the reactions. The mixtures were incubated at 37 °C for 60 min, followed by the addition of 200 μL of cold methanol to terminate the reactions. After centrifugation at 18,000 g for 15 min, 10 μL of the supernatant was analyzed by HPLC.
(§3) The enzyme kinetics of toddalolactone in oxidative metabolism and glucuronidation were determined by incubating liver microsomes (0.2 mg/mL) or CYPs (15 nM) with different concentrations of toddalolactone (1–200 μM). The kinetic parameters including Km and Vmax were obtained by fitting the experimental data to the Michaelis–Menten equation (Equation (1)), biphasic kinetics equation (Equation (2)), or substrate inhibition equation (Equation (3)) (He et al. [2018]), and the results were graphically represented on Eadie–Hofstee plots. The in vitro intrinsic clearance (CLint) was calculated based on the Vmax/Km ratio. Metabolites were quantified using the standard curve for toddalolactone because of the absence of metabolite standards. All incubations were repeated in three independent experiments. Kinetic constants were expressed with mean ± SD: (1) V=Vmax×[S]/Km+[S] (2) V=Vmax1×[S]/Ks1+[S]+Vmax2×[S]/Ks2+[S] (3) V=Vmax×[S]/Ks+[S]+[S]^2/Ksi where v is the rate of reaction, Vmax is the estimated maximum velocity, [S] is the substrate concentration, and Km is the affinity constant of the substrate; Vmax1 and Vmax2 represent the estimated maximum velocity of the two metabolic phases; Ks1 and Ks2 represent the affinity constants for two metabolic phases; Ks and Ksi are the substrate affinity and inhibition constants, respectively.
(§4) The enzyme kinetics in oxidative metabolism and glucuronidation of toddalolactone were studied, and preliminary experiments were performed to ensure that metabolites were formed in the linear range of both reaction time and microsomal protein concentration. The metabolite with the largest peak area was used to calculate the kinetic parameter values (Km, Vmax and CLint). Based on the results of toddalolactone metabolism in different species, the kinetic parameter values in RLMs, DLMs, MLMs, HLMs, RAMs, MIMs, PLMs, CYP1A1 and CYP3A5 were calculated using P4, P4, P4, P4, P2, P2, P4, P4 and P4 data in oxidative metabolism, respectively. In the glucuronidation reaction, the kinetic parameter values in RLMs, MLMs, HLMs, RAMs and PLMs were calculated using P5, P6, P6, P6 and P5 data, respectively.

[2] = as above; type: in vitro ADME; settings: monkey, liver microsomes, pH 7.4, MLMs, Vmax/Km
Procedure: as §1, §2, §3, §4

[3] = P450-catalyzed oxidation, P4 formation
[4] = glucuronide metabolism, P6 formation

Question: Which results are given for `COc1cc2oc(=O)ccc2c(OC)c1C[C@@H](O)C(C)(C)O` [toddalolactone]?
Answer: K m [1, 3]: 255.67 ± 58.29 µM; V max [1, 3]: 161.4 ± 25.73 pmol/min/mg protein; K m [1, 4]: 154.51 ± 42.46 µM; V max [1, 4]: 187.53 ± 27.77 pmol/min/mg protein; microsomal CLint [2, 3]: 0.63 µL/min/mg; microsomal CLint [2, 4]: 1.21 µL/min/mg
